Measured values as given in patent US20210236487A1, “Methods and Compositions for Treatment of Cancer with PARP Inhibitors” (Rush University Medical Center, priority 2018, published 2021).
“And” between values parts separate entries of the source, which are not always exact repeats. Equal entries are not always repeated. “Also recorded” adds a separate entry of the source. Each block holds one molecule with its values, some of them ahead of it.

Experiments:
[1] = Hellman, 1964; cited from earlier work
[2] = Response to folic acid supplementation in patients on olaparib; assay type: in vivo, human; settings: for Response to folic acid supplementation: on olaparib
Description: (§1) A formal assessment of folic acid level along with a chart review of olaparib treated ovarian cancer patients was conducted to determine the frequency of severe folic acid deficiency in this population and the impact of replacement therapy on outcome. This was an IRB-approved study performed at Rush University Medical Center from Dec. 1, 2016 to Apr. 3, 2017. Data collection was conducted in accordance with good clinical practice guidelines and the provisions of declaration of Helsinki. Data collected included cancer history, date of initiation of olaparib, duration of olaparib use, CBC data, peripheral smear/RBC morphology data, Vitamin B12, folic acid levels, iron studies with ferritin, reticulocyte count, LDH levels, haptoglobin levels, TSH levels, any treatment administered for hematological toxicities including nutritional supplementation or blood product transfusion, dose reductions or cessation of olaparib use and indication for such intervention were collected for all patients.

ovarian cancer = test: Treatment outcome on olaparib (case series); assay type: in vivo, human
Description: as §1

[3] = cited from earlier work
[4] = test system: gBRCA-mutated advanced ovarian cancer; settings: Phase II trials, cited from earlier work
[5] = Hematologic toxicity (Hgb, MCV, other abnormalities, transfusion, dose reduction) in olaparib-treated patients (chart review / case series); assay type: in vivo, human; settings: for Transfusion requirement: secondary to anemia noted after administration of Olaparib; for Transfusion required: secondary to anemia noted while patient receiving olaparib
Description: as §1

[6] = Serum folic acid level in olaparib-treated cancer patients (chart review / case series); assay type: in vivo, human; settings: for Folic Acid Level: on olaparib, reference range 7.0-31.4 ng/mL
Description: as §1

[7] = Table 3a, patient/age c1 A/62, c2 B/78, c3 C/63, c4 D/57
[8] = Table 3b, patient/age c1 E, c2 F, c3 G, c4 H
[9] = Table 1, patient/age c1 A/61, c2 B/78, c3 C/63, c4 D/57
[10] = Table 2a, patient/age c1 A/61, c2 B/78, c3 C/63, c4 D/57
[11] = Table 2b, patient/age c1 E, c2 F, c3 G, c4 H

SMILES: CN(Cc1cnc2nc(N)nc(N)c2n1)c1ccc(C(=O)N[C@@H](CCC(=O)O)C(=O)O)cc1 [Methotrexate]
- serum folate level [1]: variably decreased

- Hgb stabilized after supplementation ([2]; Patient C, folic acid supplementation increased to 2 mg TID, olaparib briefly held): around 9 g/dL
SMILES: Nc1nc2ncc(CNc3ccc(C(=O)N[C@@H](CCC(=O)O)C(=O)O)cc3)nc2c(=O)[nH]1 [folic acid]
- anemia and macrocytosis after folic acid supplementation ([2]; Patient A on olaparib, oral folic acid 1 mg daily): improved
- Hgb after folic acid supplementation ([2]; Patient B, two weeks after starting folic acid 1 mg daily, no longer required blood transfusions): markedly improved
- folic acid level after supplementation ([2]; Patient C on olaparib, two weeks of folic acid 1 mg daily, minimally increased from prior value): 2.9 ng/mL
- folic acid level after supplementation ([2]; Patient C, folic acid supplementation increased to 2 mg TID): normalized
- folic acid level after supplementation ([2]; Patient D on olaparib, folic acid 1 mg daily): subsequent improvement
- Response to folic acid supplementation ([2]; Table 1, patient/age c1 A/61, c2 B/78, c3 C/63, c4 D/57, improvement of folic acid level to within the reference range (≥7.0 ng/mL)): Yes
- Response to folic acid supplementation ([2]; Table 2a, patient/age c1 A/61, c2 B/78, c3 C/63, c4 D/57, improvement of folic acid level to within the reference range (≥7.0 ng/mL)): Yes and No
- Response to folic acid supplementation ([2]; Table 2b, patient/age c1 E, c2 F, c3 G, c4 H, improvement of folic acid level to within the reference range (≥7.0 ng/mL)): Yes
- Response to folic acid supplementation ([2]; Table 3a, patient/age c1 A/62, c2 B/78, c3 C/63, c4 D/57, improvement of folic acid level to within reference range): Yes
- Response to folic acid supplementation ([2]; Table 3b, patient/age c2, improvement of folic acid level to within reference range): Yes
- correction of olaparib-induced folic acid deficiency ([2]; folic acid supplementation at variable doses): can correct

- folic acid level (severe folic acid deficiency) in three additional patients ([6]; 3 other women, after taking olaparib for at least four weeks): < 1.6 ng/mL
- folate level ([6]; Case report, Patient A on olaparib, Normal: 7-31.4 ng/mL): < 1.6 ng/mL
- folic acid level (severe folic acid deficiency) ([6]; Patient B on olaparib): < 1.6 ng/mL
- folic acid level (severe folic acid deficiency) ([6]; Patient C, approximately 4 weeks after starting olaparib): < 1.6 ng/mL
- folic acid level (severely low) ([6]; Patient D on olaparib): 1.6 ng/mL
- Folic Acid Level [6, 9]: <1.6 ng/mL and 1.6 ng/mL
- Folic Acid Level [6, 10]: <1.6 ng/mL and 1.6 ng/mL
- folate level after initiation of olaparib ([6]; available laboratory data of the case series): drops precipitously within weeks
SMILES: O=C(c1cc(Cc2n[nH]c(=O)c3ccccc23)ccc1F)N1CCN(C(=O)C2CC2)CC1 [olaparib, 4-[(3-[(4-cyclopropylcarbonyl)piperazin-4-yl]carbonyl)-4-fluorophenyl]methyl(2H)-phthalazin-1-one]
- Treatment outcome: discontinued because of (ovarian cancer; [7]): progression; also recorded: refractory anemia; also recorded: diarrhea
- Treatment outcome: treatment stopped after (ovarian cancer; Table 3b, patient E/73): after 20 days
- Treatment outcome: discontinued because of / status (ovarian cancer; [8]): months; ongoing; also recorded: progression
- myelodysplastic syndrome/Acute Myeloid Leukemia, olaparib-treated patients ([3]; Olaparib PI): 2%
- adverse reactions leading to discontinuation of olaparib, patients ([3]; clinical trials (Olaparib PI)): 9%
- adverse reactions leading to dose interruptions, patients ([3]; clinical trials (Olaparib PI)): 26%
- adverse reactions leading to dose reductions, patients ([3]; clinical trials (Olaparib PI)): 15%
- progression-free survival ([4]; advanced ovarian cancer): significantly prolonged
- overall response rate (ORR) ([4]; gBRCA-mutated advanced ovarian cancer, three or more previous lines of chemotherapy): 34%
- patients who developed transfusion-dependent anemia ([5]; 4 cases, in the course of treatment with olaparib): Three of the four
- hgb (severe anemia) ([5]; Case report, Patient A, after 5 weeks of olaparib therapy, requiring blood transfusion): 6.6 g/dL
- MCV (macrocytic anemia) ([5]; Case report, Patient A, at the time of Hematology evaluation): 110.7 fL
- Hgb (macrocytic anemia) ([5]; Case report, Patient A, at the time of Hematology evaluation, olaparib reduced to 100 mg BID): 9.0 g/dL
- Hgb (acute decrease) ([5]; Patient B, five weeks after starting olaparib, from 8 g/dL, requiring blood transfusion): 6.8 g/dL
- Hgb (further decrease) ([5]; Patient C on olaparib, two weeks after start of folic acid 1 mg daily, requiring blood transfusion): 6.3 g/dL
- Hgb (drop in baseline) ([5]; Patient C, approximately 4 weeks after starting olaparib, from 14 g/dL): 10 g/dL
- Hgb (mild anemia) ([5]; Patient D, while on olaparib for 6 months): 9 to 10 g/dL
- Dose Reduction or Delay of Olaparib/Cause ([5]; Table 1, patient/age c1 A/61, c2 B/78, c3 C/63, c4 D/57, cause of dose change): anemia
- Dose Reduction or Delay of Olaparib/Cause ([5]; Table 1, patient/age c1 A/61, c2 B/78, c3 C/63, c4 D/57, dose reduced or delayed): Yes/ and No
- Other Hematologic Abnormalities ([5]; Table 1, patient/age c1 A/61, c2 B/78, c3 C/63, c4 D/57, noted at time of initial Hematology assessment): Leukopenia and None and Thrombo-
- Hgb Nadir ([5]; Table 1, patient/age c1 A/61, c2 B/78, c3 C/63, c4 D/57, on olaparib, reference range 12.0-16.0 g/dL): 6.6 g⁻¹ dL⁻¹ and 6.3 g⁻¹ dL⁻¹ and 8.8 g⁻¹ dL⁻¹
- MCV Nadir ([5]; Table 1, patient/age c1 A/61, c2 B/78, c3 C/63, c4 D/57, on olaparib, reference range 82.0-103.0 fL): 110.7 fL and 102.0 fL and 91.6* fL and 98.1 fL
- Transfusion requirement [5, 9]: Yes and No
- Dose Reduction or Delay of Olaparib/Cause [5, 10]: Yes, anemia and Yes, and No and anemia
- Other Hematologic Abnormalities ([5]; Table 2a, patient/age c1 A/61, c2 B/78, c3 C/63, c4 D/57, noted at time of initial Hematology assessment): Leukopenia; and None and Thrombo-
- Hgb Nadir ([5]; Table 2a, patient/age c1 A/61, c2 B/78, c3 C/63, c4 D/57, on olaparib, reference range 12.0-16.0 g/dL): 6.6 g⁻¹ dL⁻¹ and 6.3 g⁻¹ dL⁻¹ and 8.8 g⁻¹ dL⁻¹
- MCV Nadir ([5]; Table 2a, patient/age c1 A/61, c2 B/78, c3 C/63, c4 D/57, on olaparib, reference range 82.0-103.0 fL): 110.7 fL and 102.0 fL and 91.6* fL and 98.1 fL
- Transfusion requirement [5, 10]: Yes and No
- Dose Reduction or Delay of Olaparib/Cause [5, 11]: No and Yes, neutropenia, and Yes, folic acid and anemia, fatigue, and dyspnea
- Other Hematologic Abnormalities ([5]; Table 2b, patient/age c1 E, c2 F, c3 G, c4 H, noted at time of initial Hematology assessment): Leukopenia;; also recorded: Leukopenia; also recorded: Thrombocytopenia
- MCV Nadir ([5]; Table 2b, patient/age c1 E, c2 F, c3 G, c4 H, on olaparib, reference range 82.0-103.0 fL): 112.0 fL and 115.8 fL and 93.2 fL and 98.9 fL
- Transfusion requirement [5, 11]: No and Yes
- Dose Reduction or Delay of Olaparib/Cause [5, 7]: Yes/anemia and No
- Hgb Nadir ([5]; Table 3a, patient/age c1 A/62, c2 B/78, c3 C/63, c4 D/57, lowest value documented while receiving olaparib, reference range 12.0 to 16.0 g/dL): 6.6 g⁻¹ dL⁻¹ and 6.3 g⁻¹ dL⁻¹ and 8.8 g⁻¹ dL⁻¹
- Other Hematologic Abnormalities ([5]; Table 3a, patient/age c1 A/62, c2 B/78, c3 C/63, c4 D/57, noted at time of initial hematologic assessment): Thrombo- and Leukopenia; and None
- Transfusion required [5, 7]: Yes and No
- MCV Nadir ([5]; Table 3a, patient/age c1 A/62, c2 B/78, c3 C/63, c4 D/57, while receiving olaparib, reference range 82.0 to 103.0 fL): 110.7 fL and 102.0 fL and 91.6 fL and 98.1 fL
- Hgb Nadir ([5]; Table 3b, patient/age c1 E, c2 F (200 mg once per day), c3 G, c4 H (metastatic breast cancer), lowest value while receiving olaparib, reference range 12.0 to 16.0 g/dL): 10.8 g⁻¹ dL⁻¹ and 8.1 g⁻¹ dL⁻¹ and 12.2 g⁻¹ dL⁻¹ and 10.4 g⁻¹ dL⁻¹
- Dose Reduction or Delay of Olaparib/Cause ([5]; Table 3b, patient/age c1 E, c2 F (reduced dose 200 mg once per day from the onset), c3 G/52, c4 H/35): No and No^k and Yes/rash
- Other Hematologic Abnormalities ([5]; Table 3b, patient/age c1 E, c2 F, c3 G, c4 H, noted at time of initial hematologic assessment): Leukopenia; and None and Thrombo-
- Transfusion required [5, 8]: No
- MCV Nadir ([5]; Table 3b, patient/age c1 E, c2 F, c3 G, c4 H, while receiving olaparib, reference range 82.0 to 103.0 fL): 105.6 fL and 103.1 fL and 93.5 fL and 85.8 fL
- Folic Acid Level [6, 11]: 4.9 ng/mL and 5.2 ng/mL and 3.7 ng/mL and 6.2 ng/mL
